From patent publication US11407725B2 (The Board of Trustees of the University of Illinois, priority 2018, dated 2022)

Assays:
ALDH isoforms = test: BAAA isoform selectivity assay; type: biochemical, human; details: 18 μM BAAA, 20 units of each isoform
Description: BAAA activation was determined using UV/Vis spectroscopy. A 2 mM stock solution of BAAA was prepared in DMSO and activated with 2M HCL as described in the ALDEFLUOR™ Kit protocol ([…] Technologies Inc.). Immediately before measurement, BAAA was added to the reaction mixture described above to a final concentration of 18 μM. The solution was mixed vigorously, and the reaction proceeded at room temperature. UV/Vis absorbance spectra were taken from 300 to 500 nm every 30 seconds for 15 minutes. The rate of NADH produced per minute was calculated according to the absorbance at 340 nm (ε=[…] cm^−1). All measurements were performed in triplicate and reported as the average±standard deviation. 20 units of enzyme and 18 μM of BAAA were necessary to detect a significant increase in absorbance at 340 nm for the ALDH1A1 isoform.

[1] = Photophysical properties (absorbance, emission, extinction coefficient, quantum yield); type: physicochemical; details: Probes 1-8
ALDH1A1 [2] = biological target: T1, ALDH1A1 (Homo sapiens, UniProt P00352); test: ALDH isoform selectivity of red probes: ALDH1A1; type: biochemical; details: Table 2
T1 construct: made in house
T1 sequence (P00352 1-501): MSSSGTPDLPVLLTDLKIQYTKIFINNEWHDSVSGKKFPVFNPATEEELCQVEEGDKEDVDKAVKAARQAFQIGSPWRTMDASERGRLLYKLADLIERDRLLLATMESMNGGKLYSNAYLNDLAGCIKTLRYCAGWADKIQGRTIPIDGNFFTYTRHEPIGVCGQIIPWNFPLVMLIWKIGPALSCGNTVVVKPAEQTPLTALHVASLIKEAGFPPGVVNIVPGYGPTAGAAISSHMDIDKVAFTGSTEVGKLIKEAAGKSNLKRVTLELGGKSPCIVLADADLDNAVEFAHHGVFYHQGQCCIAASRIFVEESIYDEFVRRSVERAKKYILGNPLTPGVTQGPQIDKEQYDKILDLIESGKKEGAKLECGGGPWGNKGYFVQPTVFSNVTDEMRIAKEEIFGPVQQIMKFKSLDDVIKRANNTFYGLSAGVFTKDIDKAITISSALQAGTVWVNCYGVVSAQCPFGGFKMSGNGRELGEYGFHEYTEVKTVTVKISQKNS
Description: (§1) Each ALDH isoform was added to a 50 mM triethanolamine solution (pH 7.4) containing 2.0 mM NAD^+ and 100 μM substrate at room temperature. Benzaldehyde was the substrate for ALDH3A1. Propanal was the substrate for all other isoforms. ALDH isoform activity was determined by monitoring the rate of NADH production through the increase in absorbance at 340 nm (ε=6220 M^−1cm^−1). For these assays, 1 unit is defined as the amount of enzyme that catalyzes the conversion of […] per minute. For every combination of dye and enzyme, 2 μM dye was preincubated with 2.0 mM NAD^+ in 50 mM triethanolamine solution (pH 7.4). The reaction was initiated by addition of 1 unit of ALDH. Dyes were excited at 590 nm, and fluorescence was measured continuously at 610 nm.

ALDH1A3 = biological target: T2, ALDH1A3 (Homo sapiens, UniProt P47895); test: ALDH isoform selectivity of red probes: ALDH1A3; type: biochemical; details: Table 2
T2 construct: made in house
T2 sequence (P47895 1-512): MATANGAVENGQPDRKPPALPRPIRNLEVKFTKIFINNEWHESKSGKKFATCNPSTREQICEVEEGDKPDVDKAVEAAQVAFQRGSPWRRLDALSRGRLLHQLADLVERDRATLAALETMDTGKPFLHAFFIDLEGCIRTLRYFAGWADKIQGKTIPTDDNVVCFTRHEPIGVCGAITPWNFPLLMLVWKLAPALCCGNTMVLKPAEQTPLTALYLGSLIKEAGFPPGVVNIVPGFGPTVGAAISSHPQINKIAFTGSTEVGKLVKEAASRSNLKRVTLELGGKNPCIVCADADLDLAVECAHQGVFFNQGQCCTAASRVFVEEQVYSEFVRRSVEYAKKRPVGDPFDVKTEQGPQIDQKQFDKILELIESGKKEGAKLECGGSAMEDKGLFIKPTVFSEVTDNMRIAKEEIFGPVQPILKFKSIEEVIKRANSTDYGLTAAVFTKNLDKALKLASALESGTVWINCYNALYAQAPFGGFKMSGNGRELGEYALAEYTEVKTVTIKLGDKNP
Description: as §1

ALDH1A1 [3] = biological target: T1, ALDH1A1; test: ALDH isoform selectivity of red probes: ALDH1A1; type: biochemical
ALDH1A1 kinetics [4] = substrate: Cc1cc(C=O)c(F)c(F)c1C1=C2C=CC(=O)C=C2[Si](C)(C)c2cc(O)ccc21; test: ALDH1A1 kinetics; type: biochemical, human; details: other: ALDH1A1, identical conditions; pH 7.4
Description: (§2) Solutions were prepared of 2.0 mM NAD+ and 0.1-2.5 μM AlDeSense or red-AlDeSense in 50 mM triethanolamine solution (pH 7.4). For every concentration, 1 unit of enzyme (as defined and determined in ALDH Isoform Selectivity) was added. Fluorescence was monitored for 30 seconds to determine V0. AlDeSense was excited at 490 nm and monitored at 510 nm. Red-AlDeSense was excited at 590 nm and monitored at 610 nm. Each condition was performed in triplicate. Protein concentration was determined using the Pierce™ BCA Protein Assay Kit. Data was analyzed using Microsoft Excel.

ALDH1A1 kinetics [5] = substrate: Cc1cc(C=O)ccc1-c1c2cc(F)c(=O)cc-2oc2cc(O)c(F)cc12; test: ALDH1A1 kinetics; type: biochemical, human; details: other: ALDH1A1, identical conditions; pH 7.4
Description: as §2

## Cc1cc(C)n2c1C=C1C=CC(CCC(=O)NCC=O)=[N+]1[B-]2(F)F [BAAA, BODIPY-aminoacetaldehyde]
ALDH isoforms
  reactivity with ALDH isoforms: react with a variety of isoforms

## C[Si]1(C)C2=CC(=O)C=CC2=C(c2ccc(C=O)cc2C(F)(F)F)c2ccc(O)cc21 [Probe 3, 4-(7-Hydroxy-5,5-dimethyl-3-oxo-3,5-dihydrodibenzo[b, e]silin-10-yl)-3-(trifluoromethyl)benzaldehyde]
[1]
  Quantum Yield: 0.25
ALDH1A1 [2]
  Enzyme Activity 1A1: Medium
ALDH1A1 [2]; ALDH1A1, 2 μM dye
  Enzymatic Turn On: 2.7
ALDH1A3
  Enzyme Activity 1A3: Low
ALDH1A1 [3]
  enzyme kinetics with ALDH1A1: slow enzyme kinetics

B1: ALDH1A1 (Homo sapiens) (protein)
chain: T1 sequence (P00352 1-501)
notes: made in house
ALDH1A1 kinetics [4]
  kcat/Km: 132000 M⁻¹ s⁻¹
ALDH1A1 kinetics [5]
  kcat/Km: 57700 M⁻¹ s⁻¹
